Results published in article PMC8302598, “Rapid discovery of self-assembling peptides with one-bead one-compound peptide library” (Nature Communications, 2021).
“Also recorded” adds a separate entry of the source.

What was measured:
HeLa cells [1] = test: CCK-8 cell viability assay; type: cell-based; settings: incubation 24 and 72 h, n=3
Description: (§1) Finally, we examined the biological effects and cellular distribution of the eight self-assembling peptides on HeLa cells. […] In order to observe the nanomaterials under fluorescent microscopy, each peptide preparation was spiked with 3% of the same peptide N-terminally labeled with FITC, and then added to HeLa cells at a final concentration of 40 μM. […] After 4 h of incubation with the peptide assemblies, the cells were observed under a fluorescent microscope (Figs. 4c, d and Supplementary 22). […] It is important to note that LDFPI nanoparticle was small (8 nm diameter) even after 4 h incubation. Its small size may in part explain its ability to pass through the nuclear pore complexes[32],[33]. […] To evaluate the cell uptake mechanism of peptide assemblies (YFTEF, ISDNL, and FGFDP) into the cytoplasm, we treated the cells at 4 °C or with various endocytosis inhibitors (Supplementary Fig. 23).
TentaGel S Resin was purchased from Rapp Polymere (Germany, loading 0.31 mmol/g). 9-Fluorenylmethoxycarbonyl (Fmoc)-protected amino acids, 2-(1H-benzotriazole-1-yl)-1,1,3,3- tetramethyluronium hexafluoro-phosphate (HBTU), and Wang resin were obtained from GL Biochem (China). Trifluoroacetic acid (TFA), fluorescein isothiocyanate (FITC), N-methyl morpholine (NMM), piperidine, and N,N′-dimethylformamide (DMF) were all from Beijing Chemical Plant (China). 1,2-Ethanedithiol (EDT) was purchased from Alfa Aesar (USA). Dimethyl sulfoxide (DMSO) was purchased from Aldrich Chemical Co. and used without further purification. Cyanogen bromide (CNBr) was from J&K Chemical (China). The HeLa cell lines were received from the Cell Culture Center of the Institute of Basic Medical Sciences, Chinese Academy of Medical Sciences (Beijing, China). Cell culture medium and fetal bovine serum were from WisentInc (Multicell, WisentInc, St. Bruno. The cell counting kit-8 assay (CCK-8) (Beyotime Institute of Biotechnology, China) was used. Hela cells were maintained Dulbecco’s modified eagle’s medium (DMEM) with 10% fetal bovine serum and 1% penicillin. All cells were cultured in a humidified atmosphere containing 5% CO2 at 37 °C.
Supplementary Figure 21 . a-h. CCK-8 cell viability assay for 8 pentapeptides (FTISD, ITSVV, YFTEF, ISDNL , LDFPI, FAGFT,
FGFDP, FFVDF) after incubation with HeLa cells for 24 and 72 h.
Standard Deviatio n (n=3).
(1 picture or pasted object on this page, not shown here)

[2] = Critical micelle concentration (CMC); type: physicochemical; settings: soluble HPLC-purified peptide, aqueous
Description: To estimate the propensity of the identified peptides to self-assemble, the critical micelle concentrations (CMC) of the eight positive peptides and four negative peptides were determined, and the results are shown in Table 1 and Supplementary Figs. 13, 14. The CMC of all the eight positive peptides were detectable and found to range between 8.4 and 14.8 μM, indicating the propensity for these peptides to self-assemble under aqueous environment. […] Hydrophobicity of peptides can be predicted by the value of GRAVY[28] with more negative value for more hydrophilic peptides. Of the four negative assembling peptides, two have a negative GRAVY value. […] Experimental testing, such as the screening strategy described in this work, is needed. This is because multiple factors, including hydrophobicity, hydrogen-bonding, electrostatic interactions, and positions of each residue within the peptides, all contribute to the assembling and final morphology of the self-assembled nano-structure.

HeLa cells [3] = test: Cellular uptake and distribution of FITC-labeled peptide assemblies (fluorescence/confocal microscopy); type: cell-based; settings: 40 μM (methods: 50 μM); for Cellular uptake: HeLa cells, 3% of peptide N-terminally FITC-labeled, 4 h incubation, fluorescence microscope; for Cellular distribution of peptide assemblies: live HeLa cells, 3% FITC-labeled peptide, 4 h, Lyso-Tracker Red, Hoechst
Description: as §1
Hela cell line was purchased from cell culture center of Institute of Basic Medical Sciences, Chinese Academy of Medical Sciences (Beijing, China). Hela cells cultured with pentapeptide nanomaterials (50 μM) were imaged using a Zeiss LSM710 confocal laser scanning microscope (Jena, Germany). The Hela cells were seeded in complete DMEM in a humidified atmosphere with 5% CO2 and then cultured at 37 °C overnight. Then, 1 mL of serum-free fresh medium containing pentapeptide (50 μM) was used for replacing the medium, and the cells were cultured for 4 h and washed with PBS three times before being imaged using a Zeiss LSM710 confocal laser scanning microscope with a 40× objective lens. The cell lines had been authenticated utilizing short tandem repeat DNA profiling. All cells were tested negative for cross-contamination of other human cells and mycoplasma contamination.
Supplementary Figure 22. Confocal microscopy of HeLa cells after incubation with FITC-labeled pentapeptide assemblies (from left to right: FT ISD, IT SVV, Y FT E F, ISDNL , L D FP I, FAG FT, FG FDP, FFVD F ) for 4 h; peptide concentration used was 50 μM. 3% of the assembled peptides was N-terminally labeled with FITC.
Supplementary Figure 23 . Cell uptake pathway analysis for FITC-labeled pentapeptide assemblies YFTEF, ISDNL and […]. a) CLSM images of HeLa cells incubated with pentapeptides (50 μ M ) at di fferent temperatures (37 or 4 °C) and in the presence of various endocytosis inhibitors, such as amiloride (2 mM), M-β-CD (5 mM), and chlorpromazine (50 μM). The scale bar is 10 μm. b) Relevant quantitative analysis of images from ‘a’. 3% of the assembled peptides was N-terminally labeled with FITC, E rror ba rs represent Standard Deviation (n=3). […]

Row | CMC [2] [µM] | Substance | Cell toxicity (CCK-8 cell viability) (HeLa cells [1]) | Cellular uptake (HeLa cells [3]) | Cellular distribution of peptide assemblies (HeLa cells [3])
1 | 10.04 | FTISD [self-assembling pentapeptide identified from OBOC library] | No cell toxicity was observed | – | stained both the cell membrane and cytoplasm
2 | 14.8 | ITSVV [self-assembling pentapeptide identified from OBOC library] | No cell toxicity was observed | – | localized on the cell membrane; also recorded: staining of the cell membrane and minor staining of the cytoplasm
3 | 14.8 | FGFDP [self-assembling pentapeptide identified from OBOC library] | No cell toxicity was observed | Obvious cellular uptake | distribute only to the cytoplasm, in granular forms

Continued, substance first:

Row | Substance | CMC [2] [µM] | Cell toxicity (CCK-8 cell viability) (HeLa cells [1]) | Cellular uptake (HeLa cells [3]) | Cellular distribution of peptide assemblies (HeLa cells [3])
4 | LDFPI [self-assembling pentapeptide identified from OBOC library] | 8.4 | No cell toxicity was observed | Obvious cellular uptake | localized to the nucleus and perinuclear areas
5 | ISDNL [self-assembling pentapeptide identified from OBOC library] | 9.4 | No cell toxicity was observed | Obvious cellular uptake | distributed inside the lysosomes throughout the cytoplasm; also recorded: distribute only to the cytoplasm, in granular forms
6 | FFVDF [self-assembling pentapeptide identified from OBOC library, forms nanofibers] | 14.4 | No cell toxicity was observed | – | formed aggregates outside the cell; also recorded: formed some fluorescent aggregates outside the cells
7 | FAGFT [self-assembling pentapeptide identified from OBOC library] | 13.9 | No cell toxicity was observed | Obvious cellular uptake | mainly confine to the cytoplasm
8 | YFTEF [self-assembling pentapeptide identified from OBOC library] | 11.4 | No cell toxicity was observed | Obvious cellular uptake | distributed throughout the cytoplasm but not the nucleus
